Among the data in the NIST ThermoML archive (doi:10.1016/j.jct.2013.01.032) are speed of sound and mass density values, retold here.

Numbers after ± are expanded uncertainties.

The conditions of the series: 101.33 kPa, Liquid; for speed of sound: Sing-around technique in a fixed-path interferometer; for mass density: Vibrating tube method.

Turning to `CCCCn1cc[n+](C)c1.O=S(=O)([O-])C(F)(F)F` [1-butyl-3-methylimidazolium trifluoromethanesulfonate], the speed of sound is, setting by setting: (293.15 K) 1402.9 ± 1.3 m/s; (308.15 K) 1369.1 ± 1.3 m/s; (323.15 K) 1336.5 ± 1.3 m/s. The mass density by setting is: (293.15 K) 1303.7 ± 0.6 kg/m3; (308.15 K) 1291.7 ± 0.6 kg/m3; (323.15 K) 1279.9 ± 0.6 kg/m3.
In the case of `CCCCO` [butan-1-ol], the speed of sound runs as follows: (293.15 K) 1256.2 ± 0.8 m/s; (308.15 K) 1205.9 ± 0.8 m/s; (323.15 K) 1155.7 ± 0.8 m/s. For the same compound, the mass density runs as follows: (293.15 K) 809.54 ± 0.14 kg/m3; (308.15 K) 798.01 ± 0.15 kg/m3; (323.15 K) 786.15 ± 0.15 kg/m3.
In the case of `CCC(C)O` (stereo not given) [butan-2-ol], the speed of sound (293.15 K) was determined as 1230 ± 1 m/s, the speed of sound (308.15 K) came to 1175.8 ± 0.9 m/s and the speed of sound (323.15 K) is on record as 1120.3 ± 0.9 m/s. Besides, the mass density by setting is: (293.15 K) 806.56 ± 0.18 kg/m3; (308.15 K) 794 ± 0.19 kg/m3; (323.15 K) 780.5 ± 0.19 kg/m3.
Take `CCCCCO` [pentan-1-ol]: the speed of sound by setting is: (293.15 K) 1292.7 ± 1.3 m/s; (308.15 K) 1242.4 ± 1.3 m/s; (323.15 K) 1192.7 ± 1.3 m/s. The mass density came to 814.53 ± 0.31 kg/m3 (293.15 K), 803.52 ± 0.31 kg/m3 (308.15 K) and 792.15 ± 0.31 kg/m3 (323.15 K).
`CCCO` [propan-1-ol]: the speed of sound was 1223.9 ± 0.8 m/s (293.15 K), 1172.6 ± 0.8 m/s (308.15 K) and 1122 ± 0.8 m/s (323.15 K). Further, the mass density reads like this: (293.15 K) 803.92 ± 0.14 kg/m3; (308.15 K) 791.84 ± 0.15 kg/m3; (323.15 K) 779.33 ± 0.16 kg/m3.
Take `CC(C)O` [propan-2-ol]: the speed of sound is, setting by setting: (293.15 K) 1156.7 ± 0.8 m/s; (323.15 K) 1050.8 ± 0.7 m/s. Further, the mass density (293.15 K) is listed as 785.1 ± 0.15 kg/m3, the mass density (308.15 K) was 772.31 ± 0.16 kg/m3 and the mass density (323.15 K) is recorded as 758.7 ± 0.17 kg/m3.
